Series [1] is described as follows: Aqueous solubility of the compound. It counts as physicochemical.
Series [2] deals with Staphylococcus epidermidis. In words: Antimicrobial activity against Staphylococcus epidermidis 9142 under aerobic condition by microdilution method. It counts as functional, organism-based. For orientation: Broth dilution looks for growth in wells or tubes with falling amounts of substance.
In series [3] the test system is Staphylococcus epidermidis. In words: Antimicrobial activity against biofilm-positive Staphylococcus epidermidis clinical isolate ICS4 by microdilution method. It counts as functional, organism-based.
The test system of series [4] is Staphylococcus epidermidis. In words: Antimicrobial activity against Staphylococcus epidermidis 9142 expressing surface protein Aap assessed as inhibition of biofilm formation at 12.5 ug/ml by spectrophotometry in presence of calcium ions. It counts as functional, organism-based.
The test system of series [5] is Staphylococcus epidermidis. Description: Antimicrobial activity against Staphylococcus epidermidis CAV1005 by microdilution method. The format is functional.
Series [6] has as its system Staphylococcus haemolyticus. In words: Antimicrobial activity against Staphylococcus haemolyticus S33208 assessed as inhibition of biofilm formation after 24 hrs by crystal violet staining. The format is functional, organism-based.
Series [7] has as its system Staphylococcus epidermidis. Description: Antimicrobial activity against Staphylococcus epidermidis 9142 assessed as inhibition of bacterial accumulation on catheters treated for 12 hrs post biofilm formation measured after 24 hrs by crystal voilet staining. The format is functional, organism-based.
The subject of series [8] is Staphylococcus epidermidis. Description: Antimicrobial activity against Staphylococcus epidermidis 9142 expressing surface protein Aap assessed as inhibition of biofilm formation at 12.5 ug/ml by spectrophotometry in presence of EDTA. The format is functional, organism-based.
For series [9], the system named is Staphylococcus epidermidis. In words: Antimicrobial activity against Staphylococcus epidermidis 9142 at 1 to 5 ug/ml by microplate assay. It counts as functional, organism-based.
The test system of series [10] is Staphylococcus epidermidis. In words: Antimicrobial activity against biofilm-positive Staphylococcus epidermidis clinical isolate ICS1 assessed as inhibition of biofilm formation after 16 hrs by crystal violet staining. The format is functional, organism-based.
Series [11] deals with Staphylococcus epidermidis. In words: Antimicrobial activity against Staphylococcus epidermidis clinical isolate 5179-R1 derived from PNAG negative, icaA::IS257 mutant 5179 strain produces a proteinaceous biofilm dependent on a truncated 140-kDa isoform of Aap by microdilution method. The format is functional, organism-based.
For series [12], the system named is Staphylococcus epidermidis. Description: Antimicrobial activity against Staphylococcus epidermidis 9142 assessed as inhibition of bacterial attachment to plastics at 10 ug/ml under static condition for 3 hrs by microscopic analysis. It counts as functional, organism-based.
For series [13], the system named is Staphylococcus epidermidis. In words: Antimicrobial activity against Staphylococcus epidermidis 9142 assessed as inhibition of bacterial primary attachment to plastics during 3 hrs at 15 ug/ml by microscopic analysis. The format is functional, organism-based.
Series [14] has as its system Staphylococcus epidermidis. In words: Antimicrobial activity against Staphylococcus epidermidis 9142 under microaeration condition at 10 ug/ml by microdilution method. The format is functional, organism-based.
In series [15] the test system is Staphylococcus epidermidis. In words: Antimicrobial activity against Staphylococcus epidermidis 9142 expressing surface protein Aap by microdilution method in presence of 10 uM Zn ions. The format is functional.
For series [16], the system named is Staphylococcus epidermidis. Description: Antimicrobial activity against Staphylococcus epidermidis CAV1005 under aerobic condition by microdilution method. It counts as functional, organism-based.
For series [17], the system named is Staphylococcus epidermidis. In words: Antimicrobial activity against Staphylococcus epidermidis 9142 expressing surface protein Aap up to 10 hrs by microdilution method in presence of 10 uM Zn ions. The format is functional, organism-based.
In series [18] the test system is Staphylococcus epidermidis. In words: Antimicrobial activity against biofilm-positive Staphylococcus epidermidis clinical isolate ICS5 by microdilution method. It counts as functional, organism-based.
Series [19] deals with Staphylococcus epidermidis. Description: Antimicrobial activity against Staphylococcus epidermidis clinical isolate 5179-R1 derived from PNAG negative, icaA::IS257 mutant 5179 strain produces a proteinaceous biofilm dependent on a truncated 140-kDa isoform of Aap assessed as inhibition of biofilm formation after 16 hrs by crystal violet staining. It counts as functional, organism-based.

Series [20] deals with Staphylococcus epidermidis. Description: Antimicrobial activity against biofilm-positive Staphylococcus epidermidis clinical isolate ICS1 by microdilution method. It counts as functional, organism-based.
Series [21] deals with Staphylococcus epidermidis. Description: Antimicrobial activity against Staphylococcus epidermidis 5179 by microdilution method. The format is functional.
For series [22], the system named is Staphylococcus epidermidis. Description: Antimicrobial activity against biofilm-positive Staphylococcus epidermidis clinical isolate ICS4 assessed as inhibition of biofilm formation after 16 hrs by crystal violet staining. The format is functional, organism-based.
The subject of series [23] is Staphylococcus epidermidis. In words: Antimicrobial activity against Staphylococcus epidermidis 9142 expressing surface protein Aap assessed as inhibition of bacterial growth at 12.5 ug/ml after 16 hrs by spectrophotometry in presence of 10 uM Zn ions. It counts as functional, organism-based.
Series [24] has as its system Staphylococcus epidermidis. Description: Antimicrobial activity against biofilm-positive Staphylococcus epidermidis clinical isolate ICS3 by microdilution method. The format is functional, organism-based.
Series [25] concerns Staphylococcus epidermidis. In words: Antimicrobial activity against Staphylococcus epidermidis 5179 at 25 ug/ml under aerobic condition by microdilution method. The format is functional, organism-based.
Series [26] concerns Staphylococcus epidermidis. Description: Antimicrobial activity against Staphylococcus epidermidis 9142 assessed as inhibition of bacterial accumulation on catheters after 24 hrs by catheter adherence model. The format is functional, organism-based.
In series [27] the test system is Staphylococcus epidermidis. In words: Antimicrobial activity against Staphylococcus epidermidis 5179 under aerobic condition by microdilution method. It counts as functional, organism-based.
Series [28] concerns Staphylococcus epidermidis. Description: Antimicrobial activity against Staphylococcus epidermidis 9142 assessed as inhibition of bacterial attachment to plastics at 15 ug/ml under static condition for 3 hrs by microscopic analysis in presence of 10 uM Zn ions. The format is functional, organism-based.
Series [29] relates to Staphylococcus epidermidis. Description: Antimicrobial activity against biofilm-positive Staphylococcus epidermidis clinical isolate ICS3 assessed as inhibition of biofilm formation after 16 hrs by crystal violet staining. It counts as functional, organism-based.
Series [30] has as its system Staphylococcus epidermidis. In words: Antimicrobial activity against Staphylococcus epidermidis 9142 assessed as inhibition of bacterial attachment to plastics at 15 ug/ml under static condition for 3 hrs by microscopic analysis. It counts as functional, organism-based.
The test system of series [31] is Staphylococcus epidermidis. In words: Antimicrobial activity against Staphylococcus epidermidis 9142 expressing surface protein Aap assessed as inhibition of biofilm formation at 12.5 ug/ml by spectrophotometry in presence of magnesium ions. It counts as functional, organism-based.
Series [32] concerns Staphylococcus epidermidis. Description: Antimicrobial activity against biofilm-positive Staphylococcus epidermidis clinical isolate ICS5 assessed as inhibition of biofilm formation after 16 hrs by crystal violet staining. The format is functional, organism-based.
For series [33], the system named is Staphylococcus haemolyticus. In words: Antimicrobial activity against Staphylococcus haemolyticus S33208 assessed as growth inhibition at 8 ug/ml by microdilution method. It counts as functional, organism-based.
For series [34], the system named is Staphylococcus epidermidis. Description: Antimicrobial activity against Staphylococcus epidermidis 9142 expressing surface protein Aap assessed as inhibition of biofilm formation at 12.5 ug/ml by spectrophotometry in presence of Zn ions. The format is functional, organism-based.
The subject of series [35] is Staphylococcus epidermidis. In words: Antimicrobial activity against Staphylococcus epidermidis 5179 under microaeration condition at 10 ug/ml by microdilution method. It counts as functional, organism-based.
Series [36] deals with Staphylococcus epidermidis. Description: Antimicrobial activity against Staphylococcus epidermidis 9142 assessed as growth inhibition at 8 ug/ml by microdilution method. The format is functional, organism-based.
The subject of series [37] is Staphylococcus epidermidis. In words: Antimicrobial activity against Staphylococcus epidermidis 9142 assessed as inhibition of bacterial primary attachment to plastics at 15 ug/ml under shaking condition for 3 hrs by microscopic analysis. The format is functional, organism-based.
Series [38] has as its system Staphylococcus epidermidis. Description: Antimicrobial activity against Staphylococcus epidermidis 9142 at 25 ug/ml under aerobic condition by microdilution method. It counts as functional, organism-based.
Series [39] deals with Staphylococcus epidermidis. Description: Antimicrobial activity against Staphylococcus epidermidis 9142 by microdilution method. The format is functional.
The test system of series [40] is Staphylococcus epidermidis. In words: Antimicrobial activity against Staphylococcus epidermidis CAV1005 at 25 ug/ml under aerobic condition by microdilution method. It counts as functional, organism-based.
In series [41] the test system is Staphylococcus epidermidis. In words: Antimicrobial activity against Staphylococcus epidermidis 9142 expressing surface protein Aap assessed as inhibition of bacterial growth at 12.5 ug/ml by spectrophotometry in presence of 10 uM Zn ions. The format is functional, organism-based.
Series [42] concerns Staphylococcus epidermidis. In words: Antimicrobial activity against Staphylococcus epidermidis CAV1005 assessed as inhibition of biofilm formation after 24 hrs by microdilution method. It counts as functional. The following applies: CAV1005, 24 h.
In series [43] the test system is Staphylococcus epidermidis. Description: Antimicrobial activity against biofilm-positive Staphylococcus epidermidis clinical isolate ICS2 by microdilution method. The format is functional, organism-based.
Series [44] relates to Staphylococcus epidermidis. In words: Antimicrobial activity against Staphylococcus epidermidis 9142 assessed as inhibition of biofilm formation after 24 hrs by crystal violet staining. The format is functional, organism-based.
The test system of series [45] is Staphylococcus epidermidis. Description: Antimicrobial activity against Staphylococcus epidermidis 9142 assessed as growth inhibition at 16 ug/ml by microdilution method. The format is functional, organism-based.
Series [46] concerns Staphylococcus epidermidis. In words: Antimicrobial activity against biofilm-positive Staphylococcus epidermidis clinical isolate ICS2 assessed as inhibition of biofilm formation after 16 hrs by crystal violet staining. The format is functional, organism-based.
In series [47] the test system is Staphylococcus epidermidis. Description: Antimicrobial activity against Staphylococcus epidermidis 9142 at 25 ug/ml by microdilution method. The format is functional, organism-based.
The subject of series [48] is Staphylococcus epidermidis. In words: Antimicrobial activity against Staphylococcus epidermidis CAV1005 under microaeration condition at 10 ug/ml by microdilution method. The format is functional, organism-based.
The subject of series [49] is Staphylococcus haemolyticus. In words: Antimicrobial activity against Staphylococcus haemolyticus S33208 assessed as growth inhibition at 16 ug/ml by microdilution method. It counts as functional, organism-based.
Series [50] relates to Staphylococcus hominis. In words: Antimicrobial activity against Staphylococcus hominis F13532 assessed as inhibition of biofilm formation after 24 hrs by microdilution method. The format is functional. The following applies: F13532, 24 h.
Series [51] in a line: Plasma protein binding in healthy volunteers at […], po administered as single dose. It counts as ADME, organism-based. More on the design: route oral. The following applies: human, read-out: PPB (converted).

Structures are written as SMILES. Converted amounts (≈) assume the structure as drawn. The source made the active and inactive calls. The rule behind the calls is not given here. Some results are limits rather than exact numbers.

For orientation: solubility means the concentration that dissolves in the medium under given conditions. Take `Cl.NCCOc1ccccc1C(=O)Nc1ncc([N+](=O)[O-])s1`: the solubility in series [1] was found to be 400 µg/mL.
The term IC50 denotes the concentration that inhibits the measured activity by half. Take `CC(=O)Oc1ccccc1C(=O)Nc1ncc([N+](=O)[O-])s1` [NITAZOXANIDE]: the Activity result in series [2], in series [6], in series [16], in [26], in series [27] and in [44] was “Dose-dependent effect” throughout. For the same compound, the IC50 in [3], in series [11], in series [18], in series [20], in series [24] and in series [43] was 1 µg/mL (≈ 3.25 µM) throughout. Besides, the MIC came to 16 µg/mL (≈ 52.1 µM) in [3]; 8 µg/mL (≈ 26 µM) in [5]; 16 µg/mL (≈ 52.1 µM) in series [11]; 16 µg/mL in series [15]; 16 µg/mL (≈ 52.1 µM) in series [18]; 16 µg/mL (≈ 52.1 µM) in series [20]. In addition, the MIC in series [21] was 8 µg/mL (≈ 26 µM); in [24], 16 µg/mL (≈ 52.1 µM); in [39] it was 8 µg/mL (≈ 26 µM); in series [42], more than 32 µg/mL; in series [43] it was 16 µg/mL (≈ 52.1 µM); in series [50], more than 32 µg/mL. For the same compound, the outcome in [4], in series [9], in series [12], in series [13], in series [14] and in [17] was Active. Moreover, the outcome in series [25], in [28], in [30], in [31], in [33] and in series [35] was Active. For the same compound, the outcome in [36], in [37], in series [38], in [40], in series [41] and in series [45] was Active. The outcome in [47], in series [48] and in series [49] was Active. The result in [7], in series [8], in series [23] and in series [34] was inactive. Further, the inhibition result in series [10], in [19], in [22], in series [29], in series [32] and in [46] was “Active” in each case.
Consider `O=C(Nc1ncc([N+](=O)[O-])s1)c1ccccc1O` [TIZOXANIDE], for which the Activity result in series [2], in series [16] and in series [27] was “Dose-dependent effect” each time. The MIC in series [5], in series [21] and in series [39] was 8 µg/mL (≈ 30.2 µM) throughout. Moreover, the outcome in series [9], in series [25], in series [38] and in [40] was Active. Besides, the fraction unbound in series [51] is 0.025.

Source of the values: ChEMBL document CHEMBL1629682, “Nitazoxanide inhibits biofilm formation by Staphylococcus epidermidis by blocking accumulation on surfaces” (Antimicrob Agents Chemother, 2010).
